Measurements published in patent US8952014B2, “Pyrimidine derivatives which are CGRP—antagonists” (Boehringer Ingelheim International GmbH, priority 2008, dated 2015).

Biological target: T1, human CGRP receptor (Homo sapiens, UniProt O60894+Q16602)
T1 construct: SK-N-MC membranes (˜20 μg protein) are incubated for 180 minutes at ambient temperature; endogenous in cells; host or cells: SK-N-MC cells (membranes)
Test: Binding studies with SK-N-MC cells (125I-CGRP displacement from membranes)
Details: 50 pM 125I-iodotyrosyl-CGRP, 180 min, ambient temperature
Procedure: A. Binding Studies with SK-N-MC Cells (Expressing the Human CGRP Receptor)
SK-N-MC membranes (˜20 μg protein) are incubated for 180 minutes at ambient temperature with 50 pM ^125I-iodotyrosyl-Calcitonin-Gene-Related Peptide and increasing concentrations of the test substances in a total volume of 250 μl (assay buffer: 10 mM tris, 50 mM NaCl, 5 mM MgCl2, 1 mM EDTA, pH=7.4). The incubation is ended by rapid filtration through GF/B-glass fibre filters treated with polyethyleneimine (0.1%) using a cell harvester. The protein-bound radioactivity is measured using a gamma counter. Non-specific binding is defined as the bound radioactivity after the presence of 1 μM BIBN4096BS during incubation.
The concentration binding curves are analysed using computer-aided non-linear curve fitting.

T1 sequence (Q16602 23-461): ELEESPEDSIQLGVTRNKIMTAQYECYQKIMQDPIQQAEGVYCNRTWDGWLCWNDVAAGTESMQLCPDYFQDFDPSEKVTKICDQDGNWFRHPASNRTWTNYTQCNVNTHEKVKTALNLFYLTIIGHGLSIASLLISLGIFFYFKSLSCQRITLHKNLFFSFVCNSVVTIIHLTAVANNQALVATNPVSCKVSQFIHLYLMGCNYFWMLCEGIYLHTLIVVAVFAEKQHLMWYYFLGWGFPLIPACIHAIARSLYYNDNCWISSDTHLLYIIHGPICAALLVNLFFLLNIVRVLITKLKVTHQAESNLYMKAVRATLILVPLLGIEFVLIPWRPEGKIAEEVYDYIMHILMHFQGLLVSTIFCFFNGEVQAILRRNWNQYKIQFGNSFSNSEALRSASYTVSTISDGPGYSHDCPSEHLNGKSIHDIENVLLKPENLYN
T1 sequence (O60894 27-148): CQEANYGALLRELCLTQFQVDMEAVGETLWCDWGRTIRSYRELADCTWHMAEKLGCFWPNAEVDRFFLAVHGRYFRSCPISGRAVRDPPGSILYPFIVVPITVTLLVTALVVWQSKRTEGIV

COc1ccc2c(c1)CCN(C1CCN(c3cc(Oc4cc(C)c5[nH]c(=O)oc5c4)ncn3)CC1)C(=O)N2 [(1)]
Ki: 2 nM

Cc1cc(Oc2cc(N3CCC(n4c(=O)[nH]c5ncccc54)CC3)ncn2)cc2oc(=O)n(C)c12 [(2)]
Ki: 20 nM

COc1ccc2c(c1)CCN(C1CCN(c3cc(Oc4cc(C)c5c(c4)oc(=O)n5C)ncn3)CC1)C(=O)N2 [(3)]
Ki: 23 nM

Cc1ccc(Oc2cc(N3CCC(n4c(=O)[nH]c5ncccc54)CC3)ncn2)cc1C [(4)]
Ki: 175 nM

Cc1cc(Oc2cc(N3CCC(n4c(=O)[nH]c5ncccc54)CC3)ncn2)cc2oc(=O)[nH]c12 [(5)]
Ki: 3 nM

Cc1cc(Nc2cc(N3CCC(n4c(=O)[nH]c5ncccc54)CC3)ncn2)cc2oc(=O)[nH]c12 [(6)]
Ki: 4 nM

COc1ccc2c(c1)CCN(C1CCN(c3cc(Nc4cc(C)c5[nH]c(=O)oc5c4)ncn3)CC1)C(=O)N2 [(7)]
Ki: 5 nM

COc1ccc2c(c1)CCN(C1CCN(c3cc(Nc4cc(C)c5[nH]c(C)nc5c4)ncn3)CC1)C(=O)N2 [(8)]
Ki: 12 nM

Cc1nc2cc(Nc3cc(N4CCC(n5c(=O)[nH]c6c7ccccc7ncc65)CC4)ncn3)cc(C)c2[nH]1 [(9)]
Ki: 37 nM

COc1ccc2c(c1)CCN(C1CCN(c3cc(Nc4cc(C)c5c(c4)oc(=O)n5C)ncn3)CC1)C(=O)N2 [(10)]
Ki: 49 nM

COc1ccc2c(c1)CCN(C1CCN(c3cc(Nc4cc(C)c5[nH]ncc5c4)ncn3)CC1)C(=O)N2 [(11)]
Ki: 54 nM

COc1ccc2c(c1)CCN(C1CCN(c3cc(Nc4cc(C)c5c(c4)nc(C)n5C)ncn3)CC1)C(=O)N2 [(12)]
Ki: 61 nM

Cc1nc2cc(Nc3cc(N4CCC(n5c(=O)[nH]c6ncccc65)CC4)ncn3)cc(C)c2[nH]1 [(13)]
Ki: 68 nM

Cc1cc(Nc2cc(N3CCC(n4c(=O)[nH]c5ncccc54)CC3)ncn2)cc2oc(=O)n(C)c12 [(14)]
Ki: 81 nM

COc1ccc2c(c1)CCN(C1CCN(c3cc(N(C(C)=O)c4cc(C)c5c(c4)oc(=O)n5C)ncn3)CC1)C(=O)N2 [(15)]
Ki: 102 nM

COc1ccc2c(c1)CCN(C1CCN(c3cc(Nc4cc(C)c5oc(C)nc5c4)ncn3)CC1)C(=O)N2 [(16)]
Ki: 187 nM

COc1ccc2c(c1)CCN(C1CCN(c3cc(Nc4cc(C)c(O)c(C)c4)ncn3)CC1)C(=O)N2 [(17)]
Ki: 198 nM

Cc1cc(Nc2cc(Nc3ccc4c(c3)CC3(C4)C(=O)Nc4ncccc43)ncn2)cc2oc(=O)[nH]c12 (centres unmarked) [(18)]
Ki: 227 nM

Cc1nc2cc(Nc3cc(Nc4ccc5c(c4)CC4(C5)C(=O)Nc5ncccc54)ncn3)cc(C)c2[nH]1 (centres unmarked) [(19)]
Ki: 241 nM

Cc1nc2cc(Nc3cc(N4CCC(n5c(=O)[nH]c6ncccc65)CC4)ncn3)cc(C)c2o1 [(20)]
Ki: 481 nM

COc1ccc2c(c1)CCN(C1CCN(c3cc(Sc4cc(C)c5[nH]c(=O)oc5c4)ncn3)CC1)C(=O)N2 [(21)]
Ki: 2 nM

COc1ccc2c(c1)CCN(C1CCN(c3cc(Oc4cc(C)c5[nH]c(=O)oc5c4)nc(C)n3)CC1)C(=O)N2 [(22)]
Ki: 5 nM

Cc1cc(Oc2cc(N3CCC4(CC3)OC(=O)Nc3ncccc34)ncn2)cc2oc(=O)[nH]c12 [(23)]
Ki: 1 nM

Cc1nc(Nc2cc(C)c3[nH]c(=O)oc3c2)cc(N2CCC(n3c(=O)[nH]c4ncccc43)CC2)n1 [(24)]
Ki: 3 nM

COc1ccc2c(c1)CCN(C1CCN(c3cc([S+]([O-])c4cc(C)c5[nH]c(=O)oc5c4)ncn3)CC1)C(=O)N2 (centres unmarked) [(25)]
Ki: 18 nM

COc1ccc2c(c1)CCN(C1CCN(c3cc(S(=O)(=O)c4cc(C)c5[nH]c(=O)oc5c4)ncn3)CC1)C(=O)N2 [(26)]
Ki: 45 nM

COc1ccc2c(c1)CCN(C1CCN(c3cc(Oc4cnc5ccccc5n4)ncn3)CC1)C(=O)N2 [(27)]
Ki: 207 nM

COc1ccc2c(c1)CCN(C1CCN(c3cc(Oc4cc(C)c5nc(CC#N)[nH]c5c4)ncn3)CC1)C(=O)N2 [(28)]
Ki: 4 nM

COc1ccc2c(c1)CCN(C1CCN(c3cc(Oc4cc(C)c5nc(C)[nH]c5c4)ncn3)CC1)C(=O)N2 [(29)]
Ki: 3 nM

COc1ccc2c(c1)CCN(C1CCN(c3cc(Oc4cc(C)nc5ccccc45)ncn3)CC1)C(=O)N2 [(31)]
Ki: 129 nM

COc1ccc2c(c1)CCN(C1CCN(c3cc(Oc4cc(C)c5nc[nH]c5c4)ncn3)CC1)C(=O)N2 [(32)]
Ki: 15 nM

COc1ccc2c(c1)CCN(C1CCN(c3cc(Oc4cc(C)c5nc(CC6CC6)[nH]c5c4)ncn3)CC1)C(=O)N2 [(33)]
Ki: 8 nM

Cc1nc2c(C)cc(Oc3cc(N4CCC(n5c(=O)[nH]c6ncccc65)CC4)ncn3)cc2[nH]1 [(34)]
Ki: 18 nM

COc1ccc2c(c1)CCN(C1CCN(c3cc(Oc4cc(C)c5nc(CC(F)(F)F)[nH]c5c4)ncn3)CC1)C(=O)N2 [(35)]
Ki: 16 nM

COc1ccc2c(c1)CCN(C1CCN(c3cc(Oc4cc(C)nc(C)c4)ncn3)CC1)C(=O)N2 [(36)]
Ki: 61 nM

COc1ccc2c(c1)CCN(C1CCN(c3cc(Oc4cc(C)c5[nH]c(=O)oc5c4)nc(N)n3)CC1)C(=O)N2 [(37)]
Ki: 65 nM

COCc1nc2c(C)cc(Oc3cc(N4CCC(N5CCc6cc(OC)ccc6NC5=O)CC4)ncn3)cc2[nH]1 [(38)]
Ki: 10 nM

COCc1nc2cc(Oc3cc(N4CCC5(CC4)OC(=O)Nc4ncccc45)ncn3)cc(C)c2[nH]1 [(39)]
Ki: 7 nM

COc1ccc2c(c1)CCN(C1CCN(c3cc(Oc4cc(C)c5[nH]c(=O)oc5c4)nc(OC)n3)CC1)C(=O)N2 [(40)]
Ki: 8 nM

COc1nc(Oc2cc(C)c3[nH]c(=O)oc3c2)cc(N2CCC3(CC2)OC(=O)Nc2ncccc23)n1 [(41)]
Ki: 3 nM

COc1ccc2c(c1)CCN(C1CCN(c3cc(Oc4cc(C)c5nc(C6CC6)[nH]c5c4)ncn3)CC1)C(=O)N2 [(42)]
Ki: 2 nM

Cc1cc(Oc2cc(N3CCC(n4c(=O)[nH]c5ncccc54)CC3)ncn2)cc2[nH]c(C3CC3)nc12 [(43)]
Ki: 6 nM

Cc1cc(Oc2cc(N3CCC4(CC3)OC(=O)Nc3ncccc34)ncn2)cc2[nH]c(C3CC3)nc12 [(44)]
Ki: 1 nM

COc1ccc2c(c1)CCN(C1CCN(c3cc(Oc4cc(C)c5[nH]c(=O)oc5c4)nc(C4CC4)n3)CC1)C(=O)N2 [(45)]
Ki: 81 nM

COc1ccc2c(c1)CCN(C1CCN(c3nc(Cl)cc(Oc4cc(C)c5[nH]c(=O)oc5c4)n3)CC1)C(=O)N2 [(46)]
Ki: 194 nM

COc1ccc2c(c1)CCN(C1CCN(c3cc(Oc4ccc5[nH]c(=O)oc5c4)ncn3)CC1)C(=O)N2 [(47)]
Ki: 47 nM

COc1ccc2c(c1)CCN(C1CCN(c3cc(Oc4ccc(NC(C)=O)c(C)c4)ncn3)CC1)C(=O)N2 [(48)]
Ki: 96 nM

COc1ccc2c(c1)CCN(C1CCN(c3cc(Oc4ccc(N)c(C)c4)ncn3)CC1)C(=O)N2 [(49)]
Ki: 154 nM

Cc1nc2cc(Oc3cc(N4CCC5(CC4)OC(=O)Nc4ncccc45)ncn3)cc(Cl)c2[nH]1 [(51)]
Ki: 3 nM

Cc1cc(Oc2cc(N3CCC(n4c(=O)[nH]c5ncccc54)CC3)ncn2)cc2[nH]c([C@@H]3CCCO3)nc12 [(52)]
Ki: 27 nM

COc1ccc2c(c1)CCN(C1CCN(c3cc(Oc4cc(C)c5nc([C@@H]6CCCO6)[nH]c5c4)ncn3)CC1)C(=O)N2 [(53)]
Ki: 5 nM

Cc1cc(Oc2cc(N3CCC4(CC3)OC(=O)Nc3ncccc34)ncn2)cc2[nH]c([C@@H]3CCCO3)nc12 [(54)]
Ki: 2 nM

COc1ccc2c(c1)CCN(C1CCN(c3cc(Oc4ccc5[nH]c(C)nc5c4)ncn3)CC1)C(=O)N2 [(55)]
Ki: 89 nM

COc1ccc2c(c1)CCN(C1CCN(c3cc(Oc4ccc5[nH]c(C)nc5c4Cl)ncn3)CC1)C(=O)N2 [(56)]
Ki: 29 nM

COc1ccc2c(c1)CCN(C1CCN(c3cc(Oc4cc(C)c5c(c4)OCC(=O)N5)ncn3)CC1)C(=O)N2 [(57)]
Ki: 35 nM

Cc1cc(Oc2cc(N3CCC4(CC3)OC(=O)Nc3ncccc34)ncn2)cc2nc(C3CCOC3)[nH]c12 (centres unmarked) [(58)]
Ki: 2 nM

Cc1cc(Oc2cc(N3CCC4(CC3)OC(=O)Nc3ncccc34)ncn2)cc2nc([C@@H]3CCOC3)[nH]c12 [(59)]
Ki: 2 nM

Cc1cc(Oc2cc(N3CCC4(CC3)OC(=O)Nc3ncccc34)ncn2)cc2nc([C@H]3CCOC3)[nH]c12 [(60)]
Ki: 2 nM

O=C1Nc2ncccc2C2(CCN(c3cc(Oc4cc(Cl)c5[nH]c(C6CCOC6)nc5c4)ncn3)CC2)O1 (centres unmarked) [(61)]
Ki: 2 nM

O=C1Nc2ncccc2C2(CCN(c3cc(Oc4cc(Cl)c5[nH]c(C6CCOCC6)nc5c4)ncn3)CC2)O1 [(62)]
Ki: 2 nM

Cc1cc(Oc2cc(N3CCC4(CC3)OC(=O)Nc3ncccc34)ncn2)cc2nc(C(F)(F)F)[nH]c12 [(63)]
Ki: 2 nM

Cc1cc(Oc2cc(N3CCC4(CC3)OC(=O)Nc3ncccc34)ncn2)cc2sc(=O)[nH]c12 [(64)]
Ki: 2 nM

Cc1cc(Oc2cc(N3CCC4(CC3)OC(=O)Nc3ncccc34)ncn2)cc2nc(C3CCOCC3)[nH]c12 [(65)]
Ki: 3 nM

COCCc1nc2c(C)cc(Oc3cc(N4CCC5(CC4)OC(=O)Nc4ncccc45)ncn3)cc2[nH]1 [(66)]
Ki: 6 nM

COc1nc2cc(Oc3cc(N4CCC5(CC4)OC(=O)Nc4ncccc45)ncn3)cc(C)c2[nH]1 [(67)]
Ki: 6 nM

Cc1cc(Oc2cc(N3CCC4(CC3)OC(=O)Nc3ncccc34)ncn2)cc2cn[nH]c12 [(68)]
Ki: 4 nM

Cc1cc(Oc2cc(N3CCC4(CC3)OC(=O)Nc3ncccc34)ncn2)cc2c1NC(=O)CO2 [(69)]
Ki: 4 nM

Cc1cc(Oc2cc(N3CCC4(CC3)OC(=O)Nc3ncccc34)ncn2)cc2[nH]c([C@H]3CCCO3)nc12 [(70)]
Ki: 5 nM

Cc1nc(Oc2cc(C)c3[nH]c(=O)oc3c2)cc(N2CCC3(CC2)OC(=O)Nc2ncccc23)n1 [(71)]
Ki: 8 nM

COc1ccc2c(c1)CCN(C1CCN(c3cc(Oc4cc(C)c5[nH]c(=O)sc5c4)ncn3)CC1)C(=O)N2 [(72)]
Ki: 3 nM

COc1ccc2c(c1)CCN(C1CCN(c3cc(Oc4cc(C)c5nc(C6CCOC6)[nH]c5c4)ncn3)CC1)C(=O)N2 (centres unmarked) [(73)]
Ki: 3 nM
